Experimental data as given in patent publication US20250000907A1, “ENGINEERED IMMUNE CELLS WITH REDUCED SIRT6 EXPRESSION” (H. LEE MOFFITT CANCER CENTER AND RESEARCH INSTITUTE, INC., priority 2021, published 2025).

How the values were obtained:
Type in all cases: cell-based, mouse
[1] = test system: TILs isolated from B16F10 tumors; assay: IFN-γ ELISPOT assay of B16F10 TILs re-challenged with B16F10 cells; settings: B16F10 TILs re-challenged with B16F10 cells ex vivo, FIG. 7G
Description: Lymphocytes from subcutaneous tumors were isolated by dicing the tissues followed by enzymatic digestion in PBS containing collagenase type 4 (2 mg/ml, Worthington Biochemical) and DNase I (0.25 mg/ml, Sigma-Aldrich) for 45 min with occasional shaking at 37° C. Cell suspensions were then twice filtered through 100 μm and 40 μm cell strainers (Thermo Fisher Scientific) to obtain single-cell suspension followed by a PBS wash and red blood cell lysis using RBC Lysis Buffer (Biolegend). TILs were finally isolated by density gradient centrifugation using Percoll (GE Healthcare) and were further purified using […] MicroBeads Kit™ (Miltenyi Biotec) according to the manufacturer's instructions. T cell purity was greater than 90% (data not shown). Fresh TILs were used directly for phenotypic and metabolic analyses or were cultured in complete RPMI medium for functional assays.
The number of IFN-γ producing cells was evaluated in an ELISPOT assay. […] After washing steps and successive biotinylated anti-IFN-γ antibody (R4-6A2, Mabtech, Inc.) and Streptavidin-HRP (BD Bioscience) labeling, spots were detected using AEC Substrate Kit (BD Biosciences) and counted using an AID ELISPOT Reader System (Autoimmun Diagnostika GmbH).

[2] = test system: activated CD3+ T cells; assay: Seahorse extracellular flux analysis (ECAR/OCR) of activated CD3+ T cells
Description: Spleens and/or lymph nodes (LN) were collected from C57BL/6J, Pmel and OT-II mice and were processed into single-cell suspensions. CD3+, CD4+ and CD8+ T cells were negatively enriched using Mouse Pan T cell, CD4^+ T cell and CD8^+ T Cell Isolation Kits™, respectively according to the manufacturer's instructions. The purity of the isolated cells was confirmed by flow cytometry (>95%). Purified T cells were cultured in complete RPMI 1640 medium (Thermo Fisher Scientific) supplemented with 10% (vol/vol) fetal bovine serum (FBS, Biowest) and 1% (vol/vol) penicillin/streptomycin (P/S, Thomas Scientific Inc.). T cells were activated with plate-bound anti-CD3 antibody (5 μg/ml, 145-2C11, BioXCell) for the indicated time periods. […]
(§1) Extracellular acidification rate (ECAR) and oxygen consumption rate (OCR) were measured using the Seahorse XF analyzer (Agilent technologies). […] For GST, ECAR and OCR were measured under basal conditions and in response to 10 mM glucose, 1 μM oligomycin and 50 mM 2-DG successively to calculate basal glycolytic rate, glycolytic capacity (in response to oligomycin), and glycolytic reserve (glycolytic capacity-basal rate). […] Results were normalized to total protein quantified using Pierce™ BCA Protein Assay Kit (Thermo Fisher Scientific).

[3] = test system: CD3+ TILs isolated from B16F10 tumor nodules; assay: Seahorse ECAR of TILs isolated from s.c. B16F10 melanoma tumors; settings: TILs from s.c. B16F10 tumors in C57BL/6 mice, OSS vs. DMSO, FIG. 6F
Description: Anesthetized mice were injected subcutaneously (s.c.) into the hind limb with 2.5×10^5 B16F10 tumor cells in 200 μl of sterile PBS. Tumors were collected after 2 weeks and TILs were isolated for further analysis.
Lymphocytes from subcutaneous tumors were isolated by dicing the tissues followed by enzymatic digestion in PBS containing collagenase type 4 (2 mg/ml, Worthington Biochemical) and DNase I (0.25 mg/ml, Sigma-Aldrich) for 45 min with occasional shaking at 37° C. Cell suspensions were then twice filtered through 100 μm and 40 μm cell strainers (Thermo Fisher Scientific) to obtain single-cell suspension followed by a PBS wash and red blood cell lysis using RBC Lysis Buffer (Biolegend). […]
as §1

[4] = test system: stimulated CD8+ T cells from WT vs. Sirt2−/− Pmel mice; assay: Seahorse ECAR of stimulated CD8+ T cells from WT vs. Sirt2−/− Pmel mice; settings: FIG. 3B
Description: FIG. 3: Sirtuins in the immune system. A, WB of Sirt1-3,5-7 expression in activated CD3+ T cells from WT vs. Sirt2−/− mice. ECAR measured by Seahorse analyzer (B) and IFN-γ ELISPOT assay (C) in stimulated CD8+ T cells from WT vs. Sirt2−/− Pmel mice treated with vehicle (Ctl), or Sirt6 inhibitor (Sirt6i). *P<0.05, **P<0.01, ****P<0.0001.
Extracellular acidification rate (ECAR) and oxygen consumption rate (OCR) were measured using the Seahorse XF analyzer (Agilent technologies). Glycolysis Stress Test (GST) and mitochondrial stress test (MST) were purchased from Agilent technologies and performed according to the kit manufacturer's instructions. […] For GST, ECAR and OCR were measured under basal conditions and in response to 10 mM glucose, 1 μM oligomycin and 50 mM 2-DG successively to calculate basal glycolytic rate, glycolytic capacity (in response to oligomycin), and glycolytic reserve (glycolytic capacity-basal rate). For MST, OCR and ECAR were measured under basal conditions and in response to sequential injections of 1 μM oligomycin, 1 μM FCCP (Carbonyl cyanide 4-trifluoromethoxyphenylhydrazone) and 0.5 μM rotenone/antimycin A to calculate basal respiration rates (baseline OCR-rotenone/antimycin A OCR), maximal respiration (FCCP OCR-rotenone/antimycin A OCR), and oxidative reserve (maximum respiration rate-basal respiration rate). […]

[5] = test system: B16F10 cells; assay: LDH release cytotoxic assay of Pmel T cells against B16F10 cells; settings: Pmel T cells ex vivo, OSS vs. DMSO, FIG. 7D
Description: Evaluation of functional cytotoxic activity was performed using Pierce™ LDH Cytotoxicity Assay Kit (Thermo Fisher Scientific) according to the manufacturer's protocol. B16F10 cells or human NSCLC autologous tumor cells were used as target cells. Mouse CD8+ enriched T cells from gp100-stimulated Pmel splenocytes or human NSCLC TILs were used as effector cells. Target tumor cells were co-cultured with effector cells in 96-well round-bottom microplates at the indicated effector:target ratios with and without Sirt6 inhibitor. After 6 hr, the percentage of specific LDH release was calculated according to the following formula: % cell lysis=(experimental value−effector cells spontaneous release−target cells spontaneous release)×100/(target cells maximum release−target cells spontaneous release), where “experimental” corresponds to the experimental signal value, “effector spontaneous” to spontaneous release of LDH from effector cells alone, “target spontaneous” to spontaneous release of LDH from target cells alone and “maximum release” to the maximum release of LDH from target cells in medium containing 1% Triton X-100.

[6] = test system: activated CD3+ T cells; assay: Western blot analysis of activated T cells
Description: Whole cell lysates were prepared using lysis buffer (Pierce RIPA buffer, Thermo Fisher Scientific) supplemented with Complete™ protease inhibitor cocktail and PhosSTOP phosphatase inhibitor cocktail (Roche Applied Science).
Cell lysates (20 μg) or IP samples were loaded onto 10% SDS-PAGE and separated by electrophoresis followed by semi-dry transfer into polyvinylidene fluoride membranes (Immun-Blot® PVDF membrane, Bio-Rad) using Trans-Blot Turbo transfer system (Bio-Rad). After transfer, the membranes were blocked at room temperature with Tris-buffered saline (TBS) containing 0.05% Tween-20 (TBST) and 5% (w/v) non-fat dry milk for 1 hour and then incubated overnight at 4° C. with a specific primary antibody (indicated below). The membranes were washed three times with TBST and then incubated for 1 hour with horseradish peroxidase (HRP)-conjugated goat […] IgG H&L (Abcam, #ab97051, 1:3,000) for regular western blotting analysis, or HRP-conjugated mouse anti-rabbit IgG light-chain specific (Cell Signaling, #93702, 1:1,000) for IP samples. After washing 3 times with TBST, bound antibodies were detected by chemiluminescence using the Pierce™ ECL Western Blotting Substrate and the Super Signal West Femto Maximum Sensitivity Substrate kits (Thermo Fisher Scientific). Image acquisition was performed with the Amersham imager 600 system (GE Healthcare Bio-Sciences).
Immunoblotting was performed using primary antibodies against: Sirt6, H3K9, acetylated-H3K9 and c-Myc (#9402, 1:1,000) from Cell signaling, LDH (#ab52488, 1:5,000), PFKP (#ab204131, 1:2,000), HK1 (#ab150423, 1:1,000), HIF-1α and beta-Actin from Abcam

[7] = activated CD3+ T cells, WB, FIG. 8J

Compound: O=C(Nc1ccc(O)c(C(=O)O)c1)c1cccc(NC(=O)c2ccco2)c1 [OSS_128167]
- IFN-γ release [1]: increase
- glycolytic flux (ECAR) ([2]; CD3-stimulated CD3+ T cells, OSS 25 μM or 50 μM vs. vehicle (DMSO), FIG. 6A): profoundly increased
- SRC in response to the mitochondrial decoupling agent (FCCP) (OCR) ([2]; activated T cells, pharmacologic inhibition, FIG. 6G): increase
- glycolytic activity of TILs (ECAR) [3]: restored
- effect on metabolic activity (ECAR) with Sirt2 deficiency ([4]; Sirt2−/− Pmel CD8+ T cells): potentiated
- metabolic activity of T cells (ECAR) ([4]; activated T cells, Sirt6i vs. vehicle): increases
- cytotoxic activity against B16F10 cell challenge [5]: superior cytotoxic activity
- Glut1 protein expression levels [6, 7]: upregulation
- HK1 protein expression levels [6, 7]: upregulation
- LDHA protein expression levels [6, 7]: upregulation
- PFKP protein expression levels [6, 7]: upregulation
- H3K9 acetylation levels ([6]; activated T cells, FIG. 8D): increased
- HIF-1α expression levels ([6]; activated T cells, FIG. 8D): no effect
- c-Myc expression levels ([6]; activated T cells, FIG. 8D): no effect
